Test results as given in patent US5552156A, “Liposomal and micellular stabilization of camptothecin drugs” (Ohio State University, priority 1995, dated 1996).

How the values were obtained:
Format in all cases: physicochemical
[1] = HPLC assay of lactone ring hydrolysis, free in PBS or associated with liposomes or micelles
Protocol: A high performance liquid chromatography assay was used to determine the rate of hydrolysis of camptothecin and topotecan free in aqueous solution and to compare such rates with the rate of hydrolysis for the same drugs when bound to the DMPG and DMPC liposome membranes. The assay was conducted under near physiological conditions; the pH was 7.4, the temperature was 37° C. and the ionic strength was physiological. A Spectroflow model 980 fluorescence detector coupled to an HP 3392A integrator which acquired and processed the chromatograms, was used. For camptothecin, an Ultrasphere ODS C-18 250 mm long column was used. The mobile phase consisted of 32% acetonitrile, 67% 0.1M acetate buffer, pH 5.5, and 1% 01.M sodium dodecylsulfate at a flow rate of 1 mL/min. The detector was set to 370 nm excitation wavelength and a 418 nm long pass emission filter. A 1 μM solution of camptothecin in PBS was prepared and incubated at 37° C. Immediately after mixing the drug stock solution with PBS and at intervals of 5 min thereafter, 50 μL aliquots were taken out and mixed with 150 μL methanolic internal standard, 9-toluoylamidocamptothecin and either analyzed immediately or kept cold under dry ice. 150 μL of this mixture was diluted with 125 μL water and 200 μL was injected. The ratio of the peak areas corresponding to the intact lactone form of the camptothecin drug and the internal standard at a particular time was normalized to that at the time of mixing and was considered as the concentration of the intact lactone form.
For topotecan the excitation wavelength was 362 nm and the emission was observed through a 470 long wave pass filter. The stationary phase was Waters Nova-Pak C-18 150mm long column. The mobile phase consisted of 500 mL 0.1M KH2 PO4, 550 mL acetonitrile, 4.2 mL triethylamine (distilled over molecular sieves), 4.44 g sodium dioctylsulfosuccinate (DOSS), and 970 ml water. The pH was adjusted to 6.0 with H3 PO4. Internal standard solution contained 50×10^-9 g acridine from Eastman and 20×10^-3 M DOSS in methanol and was always kept cold at ≤-20° C. Next 150 μL or cold internal standard solution was mixed with 50 μL aliquot containing topotecan, centrifuged for 1 minute and the supernatant was either analyzed immediately or stored at -20° C. for analysis at a later time, within 2 hours. Samples were monitored at time points from 0 minutes, that is, immediately following dissolution, up to 72 hours.
The kinetics of lactone ring hydrolysis for free camptothecin, CMC and topotecan are shown in of FIGS. 7a, 7b and 7c. Analysis of the decay profile for camptothecin, CMC and topotecan free in PBS was accomplished using a nonlinear least squares program.

[2] = Fluorescence excitation and emission spectra of camptothecin drugs free in solution and bound to liposomes
Text: The camptothecin drugs are intrinsically intensely fluorescent. Fluorescence is associated with the extended conjugation of the quinoline ring system. The liposomes of Examples 1-7 were characterized for the presence of the camptothecin drugs, using excitation and emission spectrography, and fluorescence anisotropy.
(§1) Steady-state fluorescence measurements were obtained on a SLM Model 4800C. spectrofluorometer with a thermostated cuvette compartment. This instrument was interfaced with an IBM PS/2 model 55 SX computer. Excitation and emission spectra were recorded with an excitation resolution of 8 nm and an emission resolution of 4 nm. In all cases spectra were corrected for background fluorescence and scatter from unlabeled lipids or from solvents by subtraction of the spectrum of a blank. Steady-state fluorescence intensity measurements were made in the absence of polarizer. Steady-state anisotropy (a) measurements were determined with the instrument in the "T-format" for simultaneous measurement of two polarized intensities. The alignment of polarizers were checked routinely using a dilute suspension of 0.25 μm polystyrene microspheres from Polysciences, Inc, Warrington, Pa., in water; anisotropy values of >0.99 were obtained. The anisotropy was calculated from a=(Ivv -GlVH)/(Ivv +GIVH), where G-IVH /IHH and the subscripts refer to vertical and horizontal orientations of the excitation and emission polarizers, respectively.
(§2) Anisotropy measurements for camptothecin, camptothecin carboxylate sodium salt, and 10,11-methylenedioxycamptothecin were conducted using exciting light of 370 nm and 420 nm long wave pass filters on each emission channel in order to isolate the fluorescence signal from background scatter and signal. For topotecan a 400 nm excitation wavelength and a 500 nm emission filter were used and for 9-aminocamptothecin a 375 nm excitation and a wavelength 420 nm emission filter were used. For AMC and CMC, a 370 nm excitation wavelength and a 400 nm emission filter were used. For 10-hydroxycamptothecin 375 nm excitation wavelength 500 nm emission filter was used. Emission filters were obtained from Oriel Corp. Stamford, Conn. The combination of exciting light and emission filters allows one to adequately separate the fluorescence from the background signal. The contribution of background fluorescence, together with scattered light, was typically less than 1% of the total intensity. Since the lactone ring of the camptothecin drug undergoes hydrolysis in aqueous medium, all measurements were completed within the shortest possible time, less than 1 minute after mixing the drug stock solution with PBS or the liposomes. In each case, analysis was initiated immediately after mixing the drug stock solution with PBS or with the liposomes. All measurements were performed at 37° C. unless otherwise noted.
The relative fluorescence intensity of 1×10^-6 M of camptothecin free in PBS buffer at 37° C. is shown. The emission spectra of the camptothecin was recorded using exciting light of 370 nm.
An exciting light of 390 nm was used to record the emission spectra of topotecan. A decrease in the emission intensity is observed for topotecan associated with the DMPG liposome.
All spectra were recorded using camptothecin drug concentrations of 2
μM. The DMPC and DMPG concentrations were 0.29 M. Experiments were
conducted in PBS buffer at 37° C.
Also found in Table II is a relative index of the emission intensity levels from these camptothecin drugs in PBS at their respective excitation and emission λMAX.

[3] = Overall association constant by fluorescence anisotropy titration, DMPC liposomes; settings: DMPC, pH 3.0
[4] = Steady-state fluorescence anisotropy in solvents and liposomes; settings: pH 3, 37° C.
Protocol: as §1, §2
While the spectral changes provide qualitative evidence that the camptothecin drugs bind the liposome membranes, fluorescence anisotropy titration, offers the most sensitive means for quantitatively assessing the extent of the binding. The fluorescence anisotropy titration was performed according to the method of Burke and Tritton, Biochemistry 24: 1768-1776 (1985).
A steady-state fluorescence anisotropy (a) measurement is related to the rotational rate of the fluorescent molecule through the Perrin Equation: […]
where a0 is the limiting fluorescence anisotropy value, that is, the anisotropy value in the absence of depolarizing rotations, T is the excited-state lifetime, and .phi. is the rotational correlative time of the fluorophore. According to Equation 1, changes in either the T or .phi. values of a fluorescent compound can modulate its steady-state anisotropy.
The limiting fluorescence anisotropy (a0) values were also measured. The maximum values of (a) were obtained by dissolving the camptothecin drugs in the viscous solvent glycerol and cooling the samples to low temperatures. Steady-stated anisotropy (a) values were determined for samples containing 1 μM drug at 37° C.
Where the solvent viscosity is high and temperature is low, depolarizing rotations are at a minimum. By extrapolating these (a) values to -25° C., the limiting anisotropy values (a0) for the camptothecin drugs, were determined. […]

- lactone hydrolysis when associated with liposomes ([1]; DMPC and DMPG liposomes): some hydrolysis occurred at 1 hour
- C/L drug DMPC Lip. ([1]; DMPC liposomes, pH 7.4, 37° C.): 0.45
- t1/2 drug DMPC Lip. ([1]; DMPC liposomes, pH 7.4, 37° C.): 56 min
- C/L drug DMPG Lip. ([1]; DMPG liposomes, pH 7.4, 37° C.): 0.15
- t1/2 drug DMPG Lip. ([1]; DMPG liposomes, pH 7.4, 37° C.): 49 min
- lactone ring hydrolysis at 5 hours ([1]; DMPG or DMPC liposomes, 5 hours): ≤ 40%
- carboxylate/lactone ratio (C/L) free drug ([1]; final equilibrium, free in PBS, pH 7.4, 37° C.): 6.0
- t1/2 free drug ([1]; lactone hydrolysis, free in PBS, pH 7.4, 37° C.): 22.5 min
- λMAX emission, DMPC ([2]; DMPC liposomes 0.29 M, pH 7.4, 37° C.): 442 nm
- λMAX emission, DMPG ([2]; DMPG liposomes 0.29 M, pH 7.4, 37° C.): 436 nm
- shift of emission maxima upon decrease of pH / protonation ([2]; free in PBS): about 25 nm
- reduction in emission intensity levels relative to camptothecin ([2]; free in PBS, pH 7.4): 1000 -fold
- λMAX emission, PBS ([2]; free in PBS, pH 7.4, 37° C.): 439 nm
- Relative Fluorescence ([2]; in PBS, pH 7.4, at excitation and emission λMAX): 0.001
- λMAX excitation ([2]; pH 3.0): 381 nm
- spectral shift on association with DMPC liposomes, towards the blue region ([2]; pH 3.0, DMPC): 13 nm
- λMAX emission, DMPC ([2]; pH 3.0, DMPC liposomes): 477 nm
- Relative Fluorescence ([2]; pH 3.0, PBS): 0.001
- λMAX emission, PBS ([2]; pH 3.0, free in PBS): 464 nm
- λMAX excitation ([2]; pH 7.4, 2 μM drug, PBS, 37° C.): 381 nm
- overall association constant K, DMPC [3]: 25 M⁻¹
- steady-state anisotropy (a), DMPC ([4]; DMPC liposomes): 0.190
- steady-state anisotropy (a), PBS ([4]; PBS): 0.009
SMILES: CCC1(O)C(=O)OCc2c1cc1n(c2=O)Cc2cc3c(N)cccc3nc2-1 (centres unmarked) [9-aminocamptothecin]
